Values belong to the molecule of their own block, whether it stands above or below them.
Tests used:
Assay in all cases: CFTR current in FRT cells expressing G551D CFTR, […] compound with VX-770
Assay type in all cases: cell-based
[1] = molecular target: T1, cystic fibrosis transmembrane conductance regulator (CFTR) (Homo sapiens, UniProt P13569, G551D)
[2] = molecular target: T1, cystic fibrosis transmembrane conductance regulator (CFTR); remark: listed apart in the source
[3] = molecular target: T1, cystic fibrosis transmembrane conductance regulator (CFTR); remark: listed apart in the source

T1 sequence (P13569 whole entry G551D): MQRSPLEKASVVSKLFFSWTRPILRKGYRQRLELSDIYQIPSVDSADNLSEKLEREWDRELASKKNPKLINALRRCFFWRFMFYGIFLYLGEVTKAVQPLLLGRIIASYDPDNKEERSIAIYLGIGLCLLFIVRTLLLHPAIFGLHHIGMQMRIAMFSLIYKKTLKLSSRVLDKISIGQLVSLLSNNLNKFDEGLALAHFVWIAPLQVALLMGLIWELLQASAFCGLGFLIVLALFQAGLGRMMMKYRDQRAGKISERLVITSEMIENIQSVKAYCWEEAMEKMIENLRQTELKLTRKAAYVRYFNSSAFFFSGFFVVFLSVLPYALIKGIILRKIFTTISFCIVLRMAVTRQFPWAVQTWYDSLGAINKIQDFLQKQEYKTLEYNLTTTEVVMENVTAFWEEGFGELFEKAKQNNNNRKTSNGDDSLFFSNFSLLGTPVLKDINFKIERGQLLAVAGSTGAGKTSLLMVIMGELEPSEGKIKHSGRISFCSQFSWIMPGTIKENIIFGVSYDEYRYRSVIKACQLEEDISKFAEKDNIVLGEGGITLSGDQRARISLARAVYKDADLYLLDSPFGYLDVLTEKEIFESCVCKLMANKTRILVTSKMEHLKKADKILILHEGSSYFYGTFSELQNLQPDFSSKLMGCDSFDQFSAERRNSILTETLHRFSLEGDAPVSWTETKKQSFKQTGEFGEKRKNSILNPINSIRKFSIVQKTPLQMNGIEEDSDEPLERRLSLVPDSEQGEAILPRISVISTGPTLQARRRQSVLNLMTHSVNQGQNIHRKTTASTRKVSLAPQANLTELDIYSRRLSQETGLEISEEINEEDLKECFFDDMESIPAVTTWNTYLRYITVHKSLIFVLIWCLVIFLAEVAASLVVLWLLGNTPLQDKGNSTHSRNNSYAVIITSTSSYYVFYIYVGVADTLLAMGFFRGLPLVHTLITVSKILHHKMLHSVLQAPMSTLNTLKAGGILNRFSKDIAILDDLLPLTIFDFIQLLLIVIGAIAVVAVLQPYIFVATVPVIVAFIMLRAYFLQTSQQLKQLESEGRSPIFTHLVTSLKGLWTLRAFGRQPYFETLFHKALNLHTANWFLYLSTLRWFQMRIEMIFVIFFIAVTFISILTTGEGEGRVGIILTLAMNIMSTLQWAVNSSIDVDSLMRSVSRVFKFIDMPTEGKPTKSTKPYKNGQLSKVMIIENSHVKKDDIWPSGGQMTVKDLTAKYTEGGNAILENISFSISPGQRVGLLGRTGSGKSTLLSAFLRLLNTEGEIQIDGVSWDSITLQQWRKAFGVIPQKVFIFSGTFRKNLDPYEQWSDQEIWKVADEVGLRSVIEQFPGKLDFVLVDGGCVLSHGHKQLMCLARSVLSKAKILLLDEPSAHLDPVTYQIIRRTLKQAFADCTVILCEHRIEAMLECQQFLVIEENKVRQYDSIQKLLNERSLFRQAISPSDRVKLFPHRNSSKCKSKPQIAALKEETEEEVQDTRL

% gain above VX-770 alone [1]: ~ 400 % gain above VX-770 alone
Structure (SMILES): CC(C)(C)C1=Nn2c(nnc2-c2ccc(Cl)cc2Cl)SC1 [8d]

Structure (SMILES): CC(C)C1=Nn2c(nnc2-c2cc(Cl)ccc2Br)SC1 [9c]
CFTR current in FRT cells expressing G551D CFTR, 10 μM compound with VX-770 [2]: 2-bromo-5-chloro series with 9c and 9d showing the highest levels of activity

Structure (SMILES): COc1ccc(Br)c(-c2nnc3n2N=C(C(C)C)CS3)c1 [10a]
% G551D CFTR stimulation compared to VX-770 alone [3]: 232 % G551D CFTR stimulation compared to VX-770 alone
